Legend:
RKO cells = test: RKO cell colony formation assay (peptides); assay type: cell-based, human; settings: 5 μM, 3.125 ng/mL doxorubicin 48 hours (FIG. 34D)
Procedure: For the experiments shown in FIG. 34D, RKO cells were seeded on a 6-well plate at a seed density of 2×10^3 cells per well. The following day the cells were treated with 5 μM Pen-Ctrl, 5 μM Pen-Pep23, or 5 μM Pen-Pep8. The following day, 3.125 ng/mL doxorubicin was added to the cells for 48 hours. Subsequently, the cell media was changed every 3 days until colonies were visible. The cells were fixed and stained with crystal violet.

[1] = biological target: T1, eIF4E association with p53 mRNA (Homo sapiens, UniProt P06730); test: RNA-ChIP assay in RKO cells; assay type: cell-based; settings: 1.5 μM, 2 hours, versus Pen-Ctrl (FIG. 33A)
T1 construct: endogenous in cells; host or cells: RKO cells
T1 sequence (P06730 2-217 limits assumed): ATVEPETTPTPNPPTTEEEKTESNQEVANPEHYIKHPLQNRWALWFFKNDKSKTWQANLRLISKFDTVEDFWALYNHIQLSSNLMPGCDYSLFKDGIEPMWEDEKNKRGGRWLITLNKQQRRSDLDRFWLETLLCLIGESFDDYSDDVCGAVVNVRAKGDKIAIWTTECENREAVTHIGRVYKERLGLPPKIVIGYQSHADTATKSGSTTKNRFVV
Procedure: RNA-ChIP assays were performed to examine how peptides of the present invention affect eIF4E association with p53 mRNA (FIG. 33). For the experiments shown in FIG. 33A, 4 10 cm plates were seeded with 2×10^6 RKO cells the night before. The next morning 2 plates were treated with 1.5 μM Pen-Ctrl (SEQ ID NO:10) and 2 plates were treated with 1.5 μM Pen-Pep8 (SEQ ID NO:50) for 2 hours. RKO cells were harvested in 1 mL per plate polysome lysis buffer, then centrifuged at 16,000×G for 15 minutes in a microcentrifuge at 4° C. The supernatant was pooled from all aliquots and transferred to a 15 ml tube. Equilibration was performed with 50% protein A-agarose slurry in polysome lysis buffer by washing twice with 0.5 mL of polysome lysis buffer and then restoring the original volume with lysis buffer. 3×200 μL tubes of agarose. For preclearing, one aliquot of equilibrated protein A-agarose beads was added to the lysate (50 μL of 50% agarose per 1 mL lysate) and incubated with rotation at 4° C. for 1 hour. Lysate was divided into microcentrifuge tubes and centrifuged briefly for 30 seconds to collect beads. Supernatant was pooled and transferred to a new 15 mL tube. After repeating the preclearing and bead collection steps, lysate was divided into 1 mL aliquots (i.e., 2×1 mL Pen-Ctrl and 2×1 mL Pen-Pep8). […]

p53 = test: Western blot for p53 and downstream targets in RKO cells treated with peptides; assay type: cell-based, human; settings: RKO cells
p53 (mutant) = test: Western blot for mutant p53 in miaPaCa2 cells treated with Pen-Pep8; assay type: cell-based; settings: 2.5 μM for 30 minutes then 6.25 ng/mL doxorubicin 18 hours (FIG. 37C)
Procedure: For the experiments shown in FIG. 37C, 2×10^5 miaPaCa2 cells per well were plated the day before in a 6-well plate. The following day, the cells were treated with 2.5 μM Pen-Ctrl (SEQ ID NO:10) or Pen-Pep8 (SEP ID NO:50) for 30 minutes then treated with 6.25 ng/mL doxorubicin for 18 hours. The following the day, the cells were harvested with 350 μL 1×SDS-lysis buffer and 20 μL of lysate was loaded per well onto a 10% SDS-PAGE gel followed by Western blot for total eIF4E, p-eIF4E (Ser209), p53 (mutant), and actin.

RQIKIWFQNRRMKWKKYPYAASPA [Pen-Pep8, Penetratin fused to Pep8]
colony formation, sensitization to low-dose doxorubicin (RKO cells): sensitized MCF7 and RKO cells to low-dose doxorubicin
eIF4E association with p53 mRNA (RNA-ChIP) [1]: increased eIF4E association with p53 mRNA
sensitization to low-dose etoposide (p53 Western blot) (p53; 1.5 μM for 20 minutes then 0.125 ng/mL etoposide 18 hours (FIG. 34I)): also to low-dose etoposide
sensitization to low-dose doxorubicin (p53 Western blot) (p53; 1.5 μM for 20 minutes then 6.25 ng/mL doxorubicin 18 hours (FIG. 34I)): sensitized to low-dose doxorubicin
p53 expression with low dose doxorubicin (Western blot) (p53; 2.5 μM for 20 minutes then 6.25 ng/mL doxorubicin 18 hours (FIG. 34A)): robust p53 expression
p53 expression (Western blot) (p53; 2.5 μM, 18 hours (FIG. 32B)): induced p53 expression
mutant p53 expression (Western blot) (p53 (mutant)): decreased mutant p53 expression

— patent US11505574B2, “Modulation of P53 for the treatment of cancer” (THE REGENTS OF THE UNIVERSITY OF CALIFORNIA, priority 2016, dated 2022)
